Measured values reported in the supplement of paper PMC4862054.

What was measured:
Conditions in all cases: incubation time: 72 h
DU-4475 [1] = assay: normalised response (% of control), CellTox Green; higher = less cell death (100 = DMSO, 0 = benzethonium chloride kill control)
How it was run: (§1)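 Breast cancer cell lines (20 µl suspension) were seeded into 384-well plates holding compound at 5 concentrations in 10-fold steps over a compound-specific 10,000-fold range, then incubated 72 h. CellTox Green fluorescence (485/520 nm) was read first, then CellTiter-Glo luminescence after 10 min at room temperature. Each plate was normalised to 0.1 % DMSO (100) and a positive kill control (0). Each value is the normalised signal at a single concentration of the series.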

BT-549 [2] = assay: as above
How it was run: as §1

CAL-51 [3] = assay: as above
How it was run: as §1

CAL-148 [4] = assay: as above
How it was run: as §1

MDA-MB-453 [5] = assay: as above
How it was run: as §1

Hs578T [6] = assay: as above
How it was run: as §1

BT-474 [7] = assay: as above
How it was run: as §1

MDA-MB-231 [8] = assay: as above
How it was run: as §1

MCF-10A [9] = assay: as above
How it was run: as §1

HCC1937 [10] = assay: as above
How it was run: as §1

MDA-MB-468 [11] = assay: as above
How it was run: as §1

CAL-120 [12] = assay: as above
How it was run: as §1

CAL-85-1 [13] = assay: as above
How it was run: as §1

MDA-MB-436 [14] = assay: as above
How it was run: as §1

HCC1143 [15] = assay: as above
How it was run: as §1

HCC1599 [16] = assay: as above
How it was run: as §1

DU-4475 [17] = assay: normalised response (% of control), CellTiter-Glo; higher = more viable cells (100 = DMSO, 0 = benzethonium chloride kill control)
Protocol: (§2)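 DSRT, 72 h incubation, CellTox Green / CellTiter-Glo readout. Signal is normalised to DMSO and benzethonium chloride controls. Value is the normalised response at dose 3.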

BT-549 [18] = assay: as above
Protocol: as §2

CAL-51 [19] = assay: as above
Protocol: as §2

CAL-148 [20] = assay: as above
Protocol: as §2

MDA-MB-453 [21] = assay: as above
Protocol: as §2

Hs578T [22] = assay: as above
Protocol: as §2

BT-474 [23] = assay: as above
Protocol: as §2

MDA-MB-231 [24] = assay: as above
Protocol: as §2

HDQ-P1 [25] = assay: as above
Protocol: as §2

MCF-10A [26] = assay: as above
Protocol: as §2

HCC1937 [27] = assay: as above
Protocol: as §2

MDA-MB-468 [28] = assay: as above
Protocol: as §2

CAL-120 [29] = assay: as above
Protocol: as §2

CAL-85-1 [30] = assay: as above
Protocol: as §2

MFM-223 [31] = assay: as above
Protocol: as §2

MDA-MB-436 [32] = assay: as above
Protocol: as §2

HCC1143 [33] = assay: as above
Protocol: as §2

SK-BR-3 = assay: as above
Protocol: as §2

HCC1599 [34] = assay: as above
Protocol: as §2

HDQ-P1 [35] = assay: normalised response (% of control), CellTox Green; higher = less cell death (100 = DMSO, 0 = benzethonium chloride kill control)
How it was run: as §1

MFM-223 [36] = assay: as above
How it was run: as §1

SMILES | normalised response (DU-4475 [1]) [%] | normalised response (BT-549 [2]) [%] | normalised response (CAL-51 [3]) [%] | normalised response (CAL-148 [4]) [%] | normalised response (MDA-MB-453 [5]) [%] | normalised response (Hs578T [6]) [%] | normalised response (BT-474 [7]) [%] | normalised response (MDA-MB-231 [8]) [%] | normalised response (MCF-10A [9]) [%] | normalised response (HCC1937 [10]) [%] | normalised response (MDA-MB-468 [11]) [%] | normalised response (CAL-120 [12]) [%] | normalised response (CAL-85-1 [13]) [%] | normalised response (MDA-MB-436 [14]) [%] | normalised response (HCC1143 [15]) [%] | normalised response (HCC1599 [16]) [%] | normalised response (DU-4475 [17]) [%] | normalised response (BT-549 [18]) [%] | normalised response (CAL-51 [19]) [%] | normalised response (CAL-148 [20]) [%] | normalised response (MDA-MB-453 [21]) [%] | normalised response (Hs578T [22]) [%] | normalised response (BT-474 [23]) [%] | normalised response (MDA-MB-231 [24]) [%] | normalised response (HDQ-P1 [25]) [%] | normalised response (MCF-10A [26]) [%] | normalised response (HCC1937 [27]) [%] | normalised response (MDA-MB-468 [28]) [%] | normalised response (CAL-120 [29]) [%] | normalised response (CAL-85-1 [30]) [%] | normalised response (MFM-223 [31]) [%] | normalised response (MDA-MB-436 [32]) [%] | normalised response (HCC1143 [33]) [%] | normalised response (SK-BR-3) [%] | normalised response (HCC1599 [34]) [%] | normalised response (HDQ-P1 [35]) [%] | normalised response (MFM-223 [36]) [%]
CNNCc1ccc(C(=O)NC(C)C)cc1 [Procarbazine] (100 nM) | 107 | 102 | 112 | 102 | 106 | 63.4 | 102 | 119 | 98.5 | 94.1 | 95.5 | 103 | 99.7 | 103 | 99.4 | 98.7 | 101 | 109 | 102 | 104 | 104 | 104 | 100 | 105 | 105 | 109 | 103 | 99.4 | 106 | 101 | 103 | 95.4 | 108 | 105 | 107 |  | 
CN(C)CCN1C(=O)c2cccc3cc(N)cc(c23)C1=O [Amonafide] (100 nM) | 97.2 | 106 | 95.2 | 99.3 | 104 |  | 98.5 | 81.1 | 103 | 104 | 144 | 97.8 | 101 | 80.1 | 114 | 115 | 99.2 | 106 | 79.1 | 93.8 | 89.3 | 100 | 106 | 111 | 102 | 99.5 | 98.8 | 96.8 | 100 | 93.1 | 101 | 99.5 | 100 | 95.3 | 74.9 | 81.9 | 106
CN1CCN(CCOc2cc(OC3CCOCC3)c3c(Nc4c(Cl)ccc5c4OCO5)ncnc3c2)CC1 [Saracatinib] (100 nM) | 102 |  | 90.7 | 84.5 | 106 |  | 99.5 | 90.6 | 89.4 | 88.4 |  | 99 | 88.8 | 97 | 56.8 | 94.3 | 93.9 | 104 | 106 | 98.5 | 106 | 104 | 84.4 | 78.7 | 93.5 | 78.2 | 94.2 | 95.5 | 95.1 | 102 | 94.6 | 95.1 | 96.1 | 109 | 111 | 90.7 | 
c1ccc([C@H]2CN3CCSC3=N2)cc1 [Levamisole] (100 nM) | 101 | 99.2 | 112 | 103 | 101 | 76.6 | 100 |  | 87.5 | 76.8 | 120 | 102 | 107 | 99.2 | 93.9 | 104 | 107 | 98.3 | 101 | 114 | 110 | 110 | 106 | 103 | 100 | 110 | 96.8 | 113 | 104 | 103 | 113 | 107 | 102 | 108 | 106 | 102 | 106
Cn1cncc1[C@@](N)(c1ccc(Cl)cc1)c1ccc2c(c1)c(-c1cccc(Cl)c1)cc(=O)n2C [Tipifarnib] (100 nM) | 98.1 | 107 | 63.4 | 92.2 | 98.7 | 57.8 | 98.2 |  | 99.7 | 99.6 | 118 | 90.6 | 108 | 20.8 | 104 | 107 | 77.8 | 86.9 | 72 | 85.3 | 75.7 | 83.1 | 87.6 | 92.7 | 81.2 | 83.9 | 80.8 | 74.9 | 89.3 | 104 | 82.6 | 71.6 | 88.8 | 69.3 | 91.5 | 103 | 99.9
COc1ccccc1S(=O)(=O)Nc1ccc2c(c1)CN(C)C(=O)N2 [PFI-1] (100 nM) | 110 | 118 | 102 |  | 115 | 96.8 | 105 | 123 | 92.9 | 51.5 | 125 | 106 | 115 | 79.4 | 82.6 | 111 | 100 | 99.4 | 79 | 105 | 105 | 99.6 | 97.4 | 99.5 | 94.5 | 111 | 91.4 | 96.8 | 106 | 96.6 | 104 | 104 | 100 | 105 | 87.7 | 78.4 | 106
CC(C)(C#N)c1cc(Cn2cncn2)cc(C(C)(C)C#N)c1 [Anastrozole] (100 nM) | 103 | 103 | 73.3 | 106 | 102 | 87 | 102 | 106 | 74.4 | 99.9 |  | 99.9 | 101 | 93.3 | 102 | 102 | 107 | 104 | 67.3 | 98.8 | 105 | 113 | 104 | 97.4 | 102 | 112 | 95.3 | 91.3 | 101 | 98.6 | 104 | 104 | 97 | 106 | 100 | 97.9 | 100
Nc1ncnc2c1c(COc1cccc(Cl)c1)nn2C1CCOCC1 (100 nM) | 109 | 98.5 | 101 | 107 | 111 | 51.6 | 102 | 119 | 109 | 112 |  | 103 | 108 | 102 | 95.8 | 114 | 100 | 98.8 | 84.5 | 109 | 93.5 | 78.4 | 102 | 108 | 101 | 110 | 95.5 | 102 | 101 | 103 | 105 | 104 | 104 | 109 | 102 | 102 | 103
Nc1nc(OCc2cc(Br)cs2)c2[nH]cnc2n1 [Lomeguatrib] (100 nM) | 101 | 95.1 | 92.9 | 63.5 | 106 | 100 | 102 | 110 | 97.3 | 104 | 134 | 100 | 103 | 98.3 | 96.5 | 100 | 101 | 99.2 | 84.8 | 102 | 95.2 | 99 | 98.8 | 98.2 | 106 | 106 | 101 | 95.4 | 99.2 | 101 | 100 | 102 | 106 | 106 | 111 |  | 103
